Test results taken from patent publication US10183026B2, “Method of adjuvant treatment with chlorophyllin containing therapeutic preparation including for radioprotection of normal tissues during radiation therapy and kit therefor” (priority 2016, dated 2019).

Key:
[1] = test system: mice exposed to whole body irradiation; assay: Protection against whole body irradiation induced mortality (30 days survival); format: in vivo, BALB/c mice; conditions: for Extent of protection offered to mice against radiation induced mortality: Oral; for protection against radiation induced mortality as monitored by 30 days survival: 100-1000 mg/kg b.w. (preferred 180-500) orally, table of expected outcome
Protocol: (§1) Experimental animals 8- to 9 weeks-old inbred BALB/c male mice, weighing approximately 20-25 g, were treated with CHL formulation at the dose of 500 mg/Kg bw given orally for 3 consecutive days followed by whole body irradiation [using a 60Co γ-irradiator at a dose rate of 1 Gy/min (BhabhatronI II, Panacea, India)] of 7.5 Gy in one group and 6 Gy radiation to another group. Treated groups were compared to untreated control and mice treated only with CHL formulation at the given dose and mice with whole body irradiation without the CHL formulation.
To assess the in vivo radio protective efficacy of chlorophyllin, mice were given three consecutive oral administrations of: CHL formulation 1 containing chlorophyllin (500-mg/kg bw) and penicillin (10-50 mg/kg+ streptomycin 20-80 mg/kgbw) or CHL formulation 2 containing chlorophyllin (500 mg/kg bw) and tetracycline (20-80 mg/kgbw) at 24 h interval and were exposed to 8 Gy dose of whole body irradiation (which is used as a supplement to surgery during radiotherapy of cancer patients) 2 h after the last injection. Formulation 3 is chlorophyllin alone given at a dose of 500 mg/kg bw for three consecutive days with a gap of 24 h between each dose.
Trials were conducted where chlorophyllin formulation ranging from 90 mg/kg bw to 2000 mg/kg body weight were administered to mice by oral gavage for three to four consecutive days at 24 h interval between doses. Alternatively, chlorophyllin was administered by intraperitoneal route (100 mg/kg body weight) for three consecutive days at 24 h interval. The mice were exposed to different doses of whole body irradiation (7.0 Gy, 7.5 Gy or 8 Gy) 2 h after last dose of chlorophyllin. The mice were monitored for changes in body weight and survival up to 30 days after WBI.

[2] = test system: hematopoietic stem cells in the bone marrow; assay: Hoechst side population assay of bone marrow; format: in vivo, BALB/c mice; conditions: 500 mg/Kg bw orally for 3 consecutive days
Protocol: 8- to 9 weeks-old inbred BALB/c male mice, weighing approximately 20-25 g, were grouped into untreated control and CHL treated groups.
(§2) CHL formulation dose and duration: 500 mg/Kg bw given orally for 3 consecutive days.
Side population analysis: The femur bones the above mentioned mice were dissected and the marrow was flushed out into cold Iscove's Modified Dulbecco's Medium (IMDM), 2% FBS using a 21-gauge needle. Nucleated cells were counted using Hemocytometer and trypan blue dye exclusion. Three million cells from each mouse were resuspended in pre-warmed (37° C.) DMEM without phenol red. Hoechst 33342 ([…]) was added and cells were incubated at 37° C. for 90 min with intermittent shaking. At the end of incubation, cells were washed with DMEM without phenol red and kept on ice and acquired on a flow cytometer within 2 h. Verapamil (100 μM concentration) treated bone marrow cells were used to identify the Hoechst side population in this assay.
Verapamil dose: 100 μM final concentration

normal lung epithelia = assay: Gamma radiation (4 Gy)-induced injury to lung epithelial cells (cellular atypia); format: in vivo
[3] = test system: mice exposed to whole body irradiation; assay: Protection against whole body irradiation induced mortality (30 days survival); format: in vivo, BALB/c mice; conditions: 100 mg/kg bw, Intra peritoneal, 7.0 Gy
[4] = test system: MCF7 human breast cancer cells; assay: Clonogenic survival assay, MCF7; format: cell-based
Protocol: (§3) A549 and MCF 7 cells (2000 cells for control, 4 Gy and 5000 cells for 8 Gy treatments) were plated overnight in 6 well plates followed by treatment with indicated concentrations of chlorophyllin (0, 10, 20, 50 or 100 μM) for 2 h and exposed to indicated doses of radiation. After radiation exposure plates were incubated at 37° C. in CO2 incubator for 12 days for the development of colonies. After the colony formation, the plates were washed with PBS, fixed with methanol and stained with crystal violet. The colonies with more than 50 cells were counted and the survival fraction was calculated using the following formula: Survival fraction=No. of colonies/[no. of cells plated X (plating efficiency/100)], where plating efficiency is the ratio between the number of colonies developed to the number of cells plated in control.

[5] = test system: A549 human lung cancer cells; assay: γH2AX foci formation assay, A549; format: cell-based; conditions: 50 μM
Protocol: (§4) A549 cells and MCF (3×10^5 cells) were grown on the coverslip, treated with 50 μM of chlorophyllin, followed by 4 Gy radiation exposure. At different time intervals after irradiation (either 15 min or 120 min), cells were fixed with 4% paraformaldehyde, permeabilized using Triton X-100, blocked with 5% bovine serum albumin and then treated with anti-γ-H2AX antibody. Then cells were stained with FITC labeled secondary antibody and visualized using fluorescence microscope. The average number of foci per cell was calculated after counting the foci from 100 cells per group.

G-CSF = assay: Serum levels of G-CSF as a function of time; format: in vivo, mice; conditions: 500 mg/Kg bw orally for 3 days; 2, 24, 48 and 72 hrs
Protocol: as §2

mice = assay: Acute oral toxicity in mice; format: in vivo; conditions: up to an acute oral dose of 5 gm per Kg body weight
[6] = test system: lineage negative cells in the bone marrow; assay: Cell cycle of lineage negative cells in the bone marrow; format: in vivo, mice; conditions: specified dose
[7] = test system: A549 human lung cancer cells; assay: Clonogenic survival assay, A549; format: cell-based
Protocol: as §3

rats = assay: Acute oral toxicity in rats; format: in vivo; conditions: up to an acute oral dose of 5 gm per Kg body weight
[8] = test system: MCF-7 human breast cancer cells; assay: Mitotic catastrophe, Hoechst stained nuclei; format: cell-based
Protocol: MCF-7 cells (3×10^5 cells) were grown on the coverslip, treated with indicated concentrations of chlorophyllin (0, 10, 20, 50 or 100 μM) and exposed for 48 hrs to indicated doses of radiation (4 Gy and 8 Gy). After irradiation cells were fixed and stained with Hoechst and observed under fluorescence microscope. Cells with mitotic abnormalities have been counted for each group.

MCF-7 cells = assay: Reactive oxygen species by DCFDA, DHE, DHR123 fluorescence; format: cell-based, human; conditions: 50 μM
Protocol: MCF-7 cells (1×10^5) were stained with H2DCF-DA (10 μM) Ex./Em. 485/535 nm or dihydroethidium (DHE 5 μM) 518/605 nm or DHR 123 (5 μM) 500/536 nm for 20 min and incubated with chlorophyllin (50 μM) or vehicle for indicated time intervals at 37° C. Cells were exposed to 4 Gy IR and fluorescence was monitored at respective wavelengths using BioTek Microplate Reader (Synergy).

[9] = test system: MCF7 human breast cancer cells; assay: Cancer stem cell frequency (Aldefluor, CD24-CD44+, Hoechst side population), MCF7; format: cell-based; conditions: 4 Gy or 8 Gy
Protocol: (§5) For cancer stem cell analysis, by Aldefluor assay, MCF7 cells and MDA MB231 cells were stained with either Aldefluor reagent or PE-[…], APC-Cy7CD44, antibodies for 20 min on ice. The cells were washed and fixed with 1% paraformaldehyde for 20 min and stained with Hoechst 33342 (10 mg/ml) for 4 h. Isotype controls stained cells, single antibody stained cells, and fluorescence minus one (FMO) controls were used for compensation and gating. The cells were acquired on a flow Cytometer (Partec Cyflow) and analysed using FlowJo 7.6.5 (Treestar, Inc., Ashland) software.

bone marrow cells = assay: Colony forming units in bone marrow cells of whole body irradiated mice; format: cell-based; conditions: bone marrow cells in vitro
[10] = test system: MDA-MB 231 triple negative breast cancer cells; assay: Cancer stem cell frequency (CD24-CD44+, Hoechst side population), MDA-MB231; format: cell-based, human; conditions: 50 μM, 4 Gy or 8 Gy
Protocol: as §5

[11] = test system: MCF-7 human breast cancer xenograft tumors; assay: In vivo radiosensitization of human breast cancer xenograft in SCID mice
Protocol: MCF-7 cells (10×10^6 in 50 μl 1×PBS and 50 μl matrigel) were injected subcutaneously in foot pad of each mouse and tumors were monitored till they developed to measurable size. Mice were then treated with 500 mg/Kg bw chlorophyllin in PBS orally for three consecutive days. After last dose administration mice were locally exposed to IR 6 Gy (at the site of tumor) and subsequently monitored for 30 days for tumor growth and survival. Measurements of tumor were taken on alternate days using digital Vernier caliper and tumor volume was recorded. At the end of 30 days tumour mass was excised for further analysis.

Gr-1+ granulocytes = assay: Frequency of Gr-1+ granulocytes in bone marrow and blood; format: in vivo, mice
Protocol: Percent granulocytes are a biological marker for efficacy of chlorophyllin as a radioprotector in vivo. […] This is the preferred dose range. Although percentage of granulocytes increases at doses 720 and 900 mg/kg body weight, these doses are not preferred to be translated to humans. (FIG. 1E)

[12] = Pharmacokinetic study, serum half-life; format: in vivo; conditions: mice
[13] = test system: MCF7 human breast cancer cells; assay: γH2AX foci formation assay, MCF7; format: cell-based; conditions: 50 μM
Protocol: as §4

bone marrow cellularity = assay: Bone marrow cellularity after 6 Gy whole body radiation; format: in vivo, BALB/c mice; conditions: 500 mg/Kg bw orally for 3 consecutive days
Protocol: as §1

[14] = chlorophyllin alone, 10-100 μM, 2 h

Q: Which results are given for chlorophyllin?
A: Extent of protection offered to mice against radiation induced mortality ([1]; 90 mg/kg bw, 3 days, 7.5 Gy): 66.6%; Extent of protection offered to mice against radiation induced mortality ([1]; 180 mg/kg bw, 3 days, 7.5 Gy): up to 100%; Extent of protection offered to mice against radiation induced mortality ([1]; 180 mg/kg bw, 3 days, 7.5 Gy, listed as Chlorophyllin): 100%; Extent of protection offered to mice against radiation induced mortality ([1]; 500 mg/kg bw, 3 days, 7.5 Gy): 70%; Extent of protection offered to mice against radiation induced mortality ([1]; 2000 mg/kg bw, 4 days, 7.0 Gy): 50%; protection against whole body irradiation induced mortality ([1]; 7.5 Gy, 500 mg/Kg bw orally for 3 consecutive days): significantly protected; protection against radiation induced mortality as monitored by 30 days survival ([1]; 7.5 Gy, three consecutive days, without antibiotics): 100%; rescue from WBI-induced mortality, 30 days survival ([1]; 8 Gy WBI, 500 mg/kg bw, three consecutive days, 80% of irradiated mice died within 17 days): rescued all the mice; protection against radiation induced mortality as monitored by 30 days survival ([1]; 8 Gy, three consecutive days, with antibiotics): 100%; Extent of protection offered to mice against radiation induced mortality ([1]; chlorophyllin 500 mg/kg bw, 3 days, 8.0 Gy): 60%; increase of hematopoietic stem cells versus control [2]: 2-3 fold; abundance of hematopoietic stem cells (Hoechst side population) ([2]; control 0.121%): 0.573%; gamma radiation-induced injury to normal lung epithelia (cellular atypia) (normal lung epithelia): reduced; Extent of protection offered to mice against radiation induced mortality ([3]; 1 day): 30%; Extent of protection offered to mice against radiation induced mortality ([3]; 4 days): 70%; sensitization to radiation induced loss of clonogenic capacity ([4]; MCF-7, 4 Gy, CHL 10, 20, 50 or 100 μM): significantly sensitized; colony forming ability of MCF-7 cells as compared to control [4, 14]: significantly decreased; number of γ-H2AX foci versus radiation alone ([5]; 15 min after 4 Gy): did not have any effect; number of γ-H2AX foci versus radiation alone ([5]; 120 minutes after 4 Gy): significantly higher; serum levels of G-CSF (G-CSF): maximum rise after 24 hrs; toxicity (mice): did not show any toxicity; cell cycle effect in lineage negative cells in the bone marrow [6]: transient cell cycle arrest; sensitization to radiation induced loss of clonogenic capacity ([7]; A549, 4 Gy, CHL 10, 20, 50 or 100 μM): able to sensitize; colony forming ability of A549 cells as compared to control [7, 14]: significantly decreased; toxicity (rats): did not show any toxicity; radiation toxicity in human breast cancer cells in vitro ([8]; 4 Gy or 8 Gy, 10-100 μM): enhanced the radiation toxicity; mitotic abnormalities (micronuclei, multinucleated giant cells) ([8]; chlorophyllin prior to 4 Gy or 8 Gy, 48 h): pattern of mitotic catastrophe; radiation induced increase in intracellular ROS levels (MCF-7 cells; 4 Gy IR): attenuated; background levels of free radicals (MCF-7 cells; no radiation): able to scavenge; percentage of CD24-CD44+ cancer stem cells, combination with radiation ([9]; 50 μM): more effective than radiation or chlorophyllin alone; radiation induced increase in ALDH-positive cells ([9]; 100 μM): significantly attenuated; number of colony forming units (CFUs) in bone marrow cells (bone marrow cells): significantly increased; percentage of CD24-CD44+ cancer stem cells, combination with radiation [10]: more effective than radiation or chlorophyllin alone; prevention of growth of human breast cancer cells in SCID mice ([11]; 500 mg/Kg bw orally for three days + 6 Gy focal irradiation): most effective; reduction in tumor after exposure to IR as compared to control mice bearing human xenograft ([11]; 6 Gy, 100-1000 mg/kg b.w. (preferred 180-500) orally, three consecutive days, without antibiotics, table of expected outcome): (50%; tumour volume ([11]; chlorophyllin alone, 500 mg/Kg bw orally for three consecutive days): significant decrease; neutrophil frequency in the peripheral blood (Gr-1+ granulocytes; 500 mg/Kg bw orally for 3 days): increased neutrophil frequency; production of granulocytes (Gr-1+) in bone marrow (Gr-1+ granulocytes; 500 mg/Kg bw orally for 3 days): increase in the production of granulocytes; percent granulocytes, dose response (Gr-1+ granulocytes; doses up to 900 mg/kg body weight): increases up to 180 mg/kg and then plateaus up to 540 mg/kg body weight dose; serum half-life [12]: 2.363 h; number of γ-H2AX foci versus radiation alone ([13]; 15 min after 4 Gy): did not have any effect; number of γ-H2AX foci versus radiation alone ([13]; 120 minutes after 4 Gy): significantly higher; recovery from radiation induced bone marrow aplasia (bone marrow cellularity): enhanced the recovery
